Reference: PubChem BioAssay AID228 (DTP/NCI, 2004)
Several values for one entry are separate records, joined by “and”; a condition that tells them apart may be missing. Identical values can stand only once. Results filed as inconclusive are left out.

System: BDF1 mice, Friend leukemia sc, tumor weight T/C
Test: NCI In Vivo Anticancer Drug Screen. Data for tumor model Friend Virus Leukemia (Solid) (subcutaneous) in B6D2F1 (BDF1) mice
Conditions: endpoint: mean tumor weight, schedule: Q01DX011 (ip), higher = larger tumour
Procedure: The antitumor activity of compounds was measured in mice bearing transplantable tumors. Survival or tumor size were measured and the results are expressed as the measurement made in the treated group (T) divided by the measurement made in the vehicle treated control group (C). The tumor model used in this assay is Friend Virus Leukemia (Solid) (subcutaneous) in B6D2F1 (BDF1) mice

[1] = dose: 1.0 mg/kg/injection, vehicle: carboxymethylcellulose (CMC)
[2] = dose: 2.0 mg/kg/injection, vehicle: carboxymethylcellulose (CMC)
[3] = dose: 3.0 mg/kg/injection, vehicle: carboxymethylcellulose (CMC)
[4] = dose: 4.0 mg/kg/injection, vehicle: carboxymethylcellulose (CMC)
[5] = dose: 6.0 mg/kg/injection, vehicle: carboxymethylcellulose (CMC)
[6] = dose: 8.0 mg/kg/injection, vehicle: carboxymethylcellulose (CMC)
[7] = dose: 0.13 mg/kg/injection, vehicle: carboxymethylcellulose (CMC)
[8] = dose: 37.5 mg/kg/injection, vehicle: carboxymethylcellulose (CMC)
[9] = dose: 0.25 mg/kg/injection, vehicle: carboxymethylcellulose (CMC)
[10] = dose: 0.4 mg/kg/injection, vehicle: carboxymethylcellulose (CMC)
[11] = dose: 250.0 mg/kg/injection, vehicle: carboxymethylcellulose (CMC)
[12] = dose: 500.0 mg/kg/injection, vehicle: carboxymethylcellulose (CMC)
[13] = dose: 25.0 mg/kg/injection, vehicle: carboxymethylcellulose (CMC)
[14] = dose: 50.0 mg/kg/injection, vehicle: carboxymethylcellulose (CMC)
[15] = dose: 125.0 mg/kg/injection, vehicle: carboxymethylcellulose (CMC)

## NC(Cc1ccc(N(CCCl)CCCl)cc1)C(=O)O (stereo not given)
dose: 0.32 mg/kg/injection, vehicle: carboxymethylcellulose (CMC)
  T/C: 101 % of control
dose: 0.64 mg/kg/injection, vehicle: carboxymethylcellulose (CMC)
  T/C: 87 % of control
[1]
  T/C: 65 % of control
dose: 1.28 mg/kg/injection, vehicle: carboxymethylcellulose (CMC)
  T/C: 101 % of control
[2]
  T/C: 60 % of control
dose: 2.56 mg/kg/injection, vehicle: carboxymethylcellulose (CMC)
  T/C: 70 % of control
[3]
  T/C: 57 % of control
[4]
  T/C: 32 % of control
dose: 5.0 mg/kg/injection, vehicle: carboxymethylcellulose (CMC)
  T/C: 36 % of control
[5]
  T/C: 13 % of control
[6]
  T/C: 7 % of control

## COc1cc([C@@H]2c3cc4c(cc3[C@H](O)[C@H]3COC(=O)[C@H]23)OCO4)cc(OC)c1OC
[7]
  T/C: 86 % of control
dose: 0.55 mg/kg/injection, vehicle: carboxymethylcellulose (CMC)
  T/C: 86 % of control
dose: 135.0 micrograms/kg/injection, vehicle: carboxymethylcellulose (CMC)
  T/C: 83 % of control
dose: 270.0 micrograms/kg/injection, vehicle: carboxymethylcellulose (CMC)
  T/C: 114 % of control
dose: 550.0 micrograms/kg/injection, vehicle: carboxymethylcellulose (CMC)
  T/C: 75 % of control
dose: 1100.0 micrograms/kg/injection, vehicle: carboxymethylcellulose (CMC)
  T/C: 87 % of control

## Clc1ccc2c(Cl)ncnc2c1
dose: 19.0 mg/kg/injection, vehicle: carboxymethylcellulose (CMC)
  T/C: 96 % of control
[8]
  T/C: 59 % of control
dose: 75.0 mg/kg/injection, vehicle: carboxymethylcellulose (CMC)
  T/C: 31 % of control

## S=C(N=Nc1ccccc1)NNc1ccccc1
[8]
  T/C: 92 % of control

## O=C(C[N+]12CN3CN(CN(C3)C1)C2)c1ccc(Cl)cc1
[8]
  T/C: 101 % of control
dose: 150.0 mg/kg/injection, vehicle: carboxymethylcellulose (CMC)
  T/C: 117 % of control
dose: 300.0 mg/kg/injection, vehicle: carboxymethylcellulose (CMC)
  T/C: 93 % of control

## NCCCC(NC(=O)CCCCCCCCN=C(N)N)C(O)CCCCCCCCN=C(N)N (stereo not given)
dose: 0.38 mg/kg/injection, vehicle: carboxymethylcellulose (CMC)
  T/C: 102 % of control
dose: 0.75 mg/kg/injection, vehicle: carboxymethylcellulose (CMC)
  T/C: 82 % of control
dose: 1.5 mg/kg/injection, vehicle: carboxymethylcellulose (CMC)
  T/C: 92 % of control
[3]
  T/C: 96 % of control
[5]
  T/C: 79 % of control

## NNC(=O)NC(=O)NN
dose: 9.62 mg/kg/injection, vehicle: carboxymethylcellulose (CMC)
  T/C: 90 % of control
dose: 19.25 mg/kg/injection, vehicle: carboxymethylcellulose (CMC)
  T/C: 100 % of control
dose: 77.0 mg/kg/injection, vehicle: carboxymethylcellulose (CMC)
  T/C: 105 % of control

## S=P(N1CC1)(N1CC1)N1CC1
dose: 0.3 mg/kg/injection, vehicle: carboxymethylcellulose (CMC)
  T/C: 79 % of control
dose: 0.6 mg/kg/injection, vehicle: carboxymethylcellulose (CMC)
  T/C: 73 % of control
dose: 0.96 mg/kg/injection, vehicle: carboxymethylcellulose (CMC)
  T/C: 72 % of control
dose: 1.6 mg/kg/injection, vehicle: carboxymethylcellulose (CMC)
  T/C: 99 % of control
dose: 2.4 mg/kg/injection, vehicle: carboxymethylcellulose (CMC)
  T/C: 61 % of control and 73 % of control

## Nc1nc(=S)c2[nH]cnc2[nH]1
[9]
  T/C: 53 % of control and 47 % of control
[10]
  T/C: 33 % of control and 36 % of control
dose: 0.66 mg/kg/injection, vehicle: carboxymethylcellulose (CMC)
  T/C: 23 % of control and 26 % of control

## Nc1nc(SCc2ccccc2)c2ncn(C3CCCC3)c2n1
[11]
  T/C: 69 % of control
[12]
  T/C: 64 % of control
dose: 1000.0 mg/kg/injection, vehicle: carboxymethylcellulose (CMC)
  T/C: 5 % of control

## CCN(CC)CC(C)Nc1ccc(C)c2sc3ccccc3c(=O)c12 (stereo not given)
[13]
  T/C: 103 % of control
[14]
  T/C: 60 % of control

## CO[C@@]12[C@H](COC(N)=O)C3=C(C(=O)C(C)=C(N)C3=O)N1C[C@@H]1N[C@@H]12
dose: 0.06 mg/kg/injection, vehicle: carboxymethylcellulose (CMC)
  T/C: 48 % of control
dose: 0.1 mg/kg/injection, vehicle: carboxymethylcellulose (CMC)
  T/C: 66 % of control
[7]
  T/C: 56 % of control
dose: 0.2 mg/kg/injection, vehicle: carboxymethylcellulose (CMC)
  T/C: 77 % of control
[9]
  T/C: 35 % of control and 45 % of control
[10]
  T/C: 100 % of control
dose: 0.5 mg/kg/injection, vehicle: carboxymethylcellulose (CMC)
  T/C: 28 % of control
dose: 0.8 mg/kg/injection, vehicle: carboxymethylcellulose (CMC)
  T/C: 75 % of control

## CC(=O)Nc1ccc2nc3ccc(NC(C)=O)cc3[n+](-c3ccccc3)c2c1
[13]
  T/C: 101 % of control
[14]
  T/C: 112 % of control
dose: 100.0 mg/kg/injection, vehicle: carboxymethylcellulose (CMC)
  T/C: 92 % of control

## NC(CO)C(=O)O (stereo not given)
[11]
  T/C: 108 % of control
[12]
  T/C: 112 % of control

## CN(C)c1ccc(C(N)=O)cn1
[1]
  T/C: 78 % of control
[2]
  T/C: 88 % of control and 100 % of control

## Nc1nc(SCc2ccccc2)c2[nH]cnc2n1
[2]
  T/C: 84 % of control
dose: 3.12 mg/kg/injection, vehicle: saline
  T/C: 25 % of control
[4]
  T/C: 79 % of control
dose: 6.25 mg/kg/injection, vehicle: saline
  T/C: 43 % of control
[6]
  T/C: 99 % of control
dose: 10.0 mg/kg/injection, vehicle: carboxymethylcellulose (CMC)
  T/C: 46 % of control

## OCC1OC(n2cnc3c(Cl)ncnc32)C(O)C1O (stereo not given)
dose: 62.0 mg/kg/injection, vehicle: carboxymethylcellulose (CMC)
  T/C: 93 % of control
[15]
  T/C: 105 % of control
[11]
  T/C: 109 % of control
[12]
  T/C: 115 % of control

## Cc1ncc(CO)c(C)c1O
dose: 22.75 mg/kg/injection, vehicle: carboxymethylcellulose (CMC)
  T/C: 54 % of control
dose: 45.5 mg/kg/injection, vehicle: carboxymethylcellulose (CMC)
  T/C: 111 % of control
dose: 121.0 mg/kg/injection, vehicle: carboxymethylcellulose (CMC)
  T/C: 84 % of control and 98 % of control
dose: 126.0 mg/kg/injection, vehicle: carboxymethylcellulose (CMC)
  T/C: 112 % of control

## CC1CN1C(=O)c1cc(C(=O)N2CC2C)cc(C(=O)N2CC2C)c1 (stereo not given)
dose: 15.0 mg/kg/injection, vehicle: carboxymethylcellulose (CMC)
  T/C: 70 % of control
dose: 30.0 mg/kg/injection, vehicle: carboxymethylcellulose (CMC)
  T/C: 151 % of control
dose: 60.0 mg/kg/injection, vehicle: carboxymethylcellulose (CMC)
  T/C: 47 % of control

## COc1cc(OC)c(OC)cc1/C=C\c1ccnc2ccccc12
dose: 63.0 mg/kg/injection, vehicle: carboxymethylcellulose (CMC)
  T/C: 78 % of control
[15]
  T/C: 60 % of control
[11]
  T/C: 64 % of control
[12]
  T/C: 52 % of control

## O=C(Nc1ccc(C2=NCCN2)cc1)c1ccc(C(=O)Nc2ccc(C3=NCCN3)cc2)c(NC(=O)c2ccc(C(=O)Nc3cc(C(=O)Nc4ccc(C5=NCCN5)cc4)ccc3C(=O)Nc3ccc(C4=NCCN4)cc3)cc2)c1
[15]
  T/C: 161 % of control
[12]
  T/C: 115 % of control

## NC(Cc1cccs1)C(=O)O (stereo not given)
[11]
  T/C: 112 % of control

## CC(/C=N/N=C(N)N)=N/N=C(N)N
dose: 50.0 mg/kg/injection, vehicle: saline
  T/C: 124 % of control
